According to patent US20260201008A1, “SECRETIN-DERIVED GLP1R SELECTIVE AGONISTS” (GUBRA A/S, priority 2023, published 2026):
Like-named read-outs stand apart in the source and are kept apart here. Numbered stars: 1 amine (or outer) side, 2 acyl side, 3 side chain; on linkers, the order of the positions; unused ones are H or OH. Square brackets hold non-standard residues; d marks the D form. Side chains are listed from the residue outwards. Peptide text beside a SMILES is read from it. * marks the point of attachment. C20 diacid = O=C(O)CCCCCCCCCCCCCCCCCCC(=O)*; γGlu = O=C(O)[C@H](CCC(=O)[*:2])N[*:1]; AEEA = NCCOCCOCC(=O)O; Aib = CC(C)(N)C(=O)O

How the values were obtained:
[1] = Turbidity of crude library peptides (absorbance at 600 nm); assay type: physicochemical; conditions: Physical stability of peptides
How it was run: (§1)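 Crude peptides at 267 μM in 50 mM sodium acetate pH 4.0 or 50 mM sodium phosphate pH 7.0, pre-incubated 1-2 h at room temperature, then 4 μM final ThT added. Turbidity read first as A600. ThT fluorescence (ex 450/em 480 nm) read every 10 min for 72 h at 40° C, with 5 min shaking before each read; fibril formation = average emission.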

[2] = Fibril formation of crude library peptides (Thioflavin T); assay type: physicochemical; parameters: key: average ThT fluorescence emission at 480 nm (ex 450 nm), raw units; conditions: Physical stability of peptides
How it was run: as §1

GLP1R = GLP1R (Homo sapiens, UniProt P43220); experiment: hGLP1R potency, cAMP accumulation in CHO-K1 cells stably overexpressing hGLP1R; assay type: cell-based; parameters: host or cells: CHO-K1; conditions: for Selectivity: SCTR EC50/GLP1R EC50 ratio; for EC50: cAMP accumulation; for SCTR EC50/GLP1R EC50 ratio: cAMP accumulation in CHO-K1 cells
How it was run: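 CHO-K1 cells stably expressing hGLP1R (2000/well) in DPBS with 0.05% casein and 0.5 mM IBMX were stimulated 30 min at room temperature with graded compound doses; human GLP-1(7-36) served as positive control. cAMP was read by HTRF after 1 h; EC50 came from variable-slope sigmoid fits (purified peptides: 11-point 3-fold, n=2).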

SCTR = SCTR (Homo sapiens, UniProt P47872); experiment: hSCTR potency, cAMP accumulation in CHO-K1 cells stably overexpressing hSCTR; assay type: cell-based; parameters: alternatively Euroscreen ES-712-AF; FAST-0161L; host or cells: CHO-K1; conditions: cAMP accumulation
How it was run: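 Cells plated at 2000/well in DPBS with 0.05% casein and 0.5 mM IBMX, stimulated 30 min at room temperature with graded compound doses; human secretin as positive control. cAMP read by TR-FRET after 1 h. Purified peptides tested at 11 3-fold dilutions, n=2; EC50 by variable-slope sigmoid fit.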

[3] = CHO-K1 cells overexpressing hGLP1R, read-out: pEC50 hGLPR1 (converted)
[4] = CHO-K1 cells overexpressing hSCTR, read-out: pEC50 hSCTR (converted)
[5] = CHO-K1 cells overexpressing hGLP1R, read-out: hGLP1R pEC50 (converted)
[6] = selectivity for hGLP1R over hSCTR
[7] = CHO-K1 cells overexpressing hSCTR, read-out: hSCTR pEC50 (converted)

GLP1R, sequence (P43220 24-463): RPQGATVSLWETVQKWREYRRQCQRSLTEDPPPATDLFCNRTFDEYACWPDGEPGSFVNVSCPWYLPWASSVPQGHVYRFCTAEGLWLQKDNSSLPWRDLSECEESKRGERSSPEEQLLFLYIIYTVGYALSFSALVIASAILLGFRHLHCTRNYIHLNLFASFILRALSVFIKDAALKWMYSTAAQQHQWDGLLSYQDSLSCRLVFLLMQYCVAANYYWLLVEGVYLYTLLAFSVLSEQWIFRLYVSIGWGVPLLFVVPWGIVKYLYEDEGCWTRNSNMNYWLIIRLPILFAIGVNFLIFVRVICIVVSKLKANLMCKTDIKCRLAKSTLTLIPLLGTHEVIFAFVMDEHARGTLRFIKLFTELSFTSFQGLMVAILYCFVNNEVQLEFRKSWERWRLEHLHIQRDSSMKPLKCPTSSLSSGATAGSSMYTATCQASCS
SCTR, sequence (P47872 23-440): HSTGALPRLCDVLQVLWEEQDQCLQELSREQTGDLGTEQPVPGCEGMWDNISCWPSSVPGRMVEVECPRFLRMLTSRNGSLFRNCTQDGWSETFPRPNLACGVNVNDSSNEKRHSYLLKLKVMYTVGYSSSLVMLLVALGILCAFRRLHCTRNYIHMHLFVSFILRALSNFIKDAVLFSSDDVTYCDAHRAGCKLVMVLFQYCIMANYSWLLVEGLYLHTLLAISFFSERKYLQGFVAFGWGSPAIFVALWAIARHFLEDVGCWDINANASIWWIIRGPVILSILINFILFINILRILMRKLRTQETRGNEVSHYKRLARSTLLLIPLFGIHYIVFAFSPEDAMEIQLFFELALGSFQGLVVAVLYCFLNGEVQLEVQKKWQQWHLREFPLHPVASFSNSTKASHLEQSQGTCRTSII

| SMILES | Turbidity (pH 7) [1] | Fibril formation [2] | Selectivity (GLP1R) | EC50 (GLP1R; [3]) [nM] | EC50 (SCTR; [4]) [nM] | EC50 (GLP1R; CHO-K1 cells stably overexpressing hGLP1R, read-out: hGLP1R potency (pEC50) (converted)) [nM] | SCTR EC50/GLP1R EC50 ratio (GLP1R; selectivity ratio, hSCTR vs hGLP1R) | EC50 (SCTR; CHO-K1 cells stably overexpressing hSCTR, read-out: hSCTR potency (pEC50) (converted)) [nM] | EC50 (GLP1R; [5]) [nM] | SCTR EC50/GLP1R EC50 ratio (GLP1R; [6]) | EC50 (SCTR; [7]) [nM] |
| --- | --- | --- | --- | --- | --- | --- | --- | --- | --- | --- | --- |
| CC(C)C[C@H](NC(=O)[C@H](Cc1ccccc1)NC(=O)[C@H](CCCNC(=N)N)NC(=O)[C@H](CCC(N)=O)NC(=O)[C@@H](NC(=O)[C@H](C)NC(=O)[C@H](C)NC(=O)C(C)(C)NC(=O)[C@H](CCC(=O)O)NC(=O)[C@H](CCCCNC(=O)COCCOCCNC(=O)COCCOCCNC(=O)CC[C@H](NC(=O)CCCCCCCCCCCCCCCCCCC(=O)O)C(=O)O)NC(=O)[C@H](CC(C)C)NC(=O)[C@@H](NC(=O)[C@H](CO)NC(=O)[C@@H](NC(=O)[C@H](CC(=O)O)NC(=O)[C@H](CO)NC(=O)[C@@H](NC(=O)[C@H](Cc1ccccc1)NC(=O)[C@@H](NC(=O)CNC(=O)[C@H](CCC(=O)O)NC(=O)C(C)(C)NC(=O)[C@@H](N)Cc1c[nH]cn1)[C@@H](C)O)[C@@H](C)O)C(C)C)C(C)C)[C@@H](C)O)C(=O)N[C@@H](CCC(=O)O)C(=O)N[C@@H](Cc1c[nH]cn1)C(=O)N[C@@H](CC(C)C)C(=O)N[C@H](C(N)=O)C(C)C [compound 49] (H-H[Aib]EGTFTSDVSVLK([AEEA-AEEA-γGlu-C20 diacid])E[Aib]AATQRFLEHLV-NH2) | 0.08 | 11371 | 5429 | 0.02 | 126 |  |  |  |  |  |  |
| CC[C@H](C)[C@H](NC(=O)[C@H](Cc1ccccc1)NC(=O)[C@H](CCCNC(=N)N)NC(=O)[C@H](CCC(N)=O)NC(=O)[C@H](CC(C)C)NC(=O)[C@H](C)NC(=O)[C@H](C)NC(=O)CNC(=O)[C@H](CCC(=O)O)NC(=O)[C@H](CC(C)C)NC(=O)[C@H](CC(C)C)NC(=O)[C@@H](NC(=O)[C@H](CO)NC(=O)[C@H](Cc1c[nH]c2ccccc12)NC(=O)[C@H](CC(=O)O)NC(=O)[C@H](CO)NC(=O)[C@@H](NC(=O)[C@H](Cc1ccccc1)NC(=O)[C@@H](NC(=O)CNC(=O)[C@H](CCC(=O)O)NC(=O)C(C)(C)NC(=O)[C@@H](N)Cc1c[nH]cn1)[C@@H](C)O)[C@@H](C)O)C(C)C)C(=O)N[C@@H](CCC(N)=O)C(=O)N[C@@H](Cc1c[nH]c2ccccc12)C(=O)N[C@@H](CC(C)C)C(=O)N[C@H](C(N)=O)C(C)C [compound 188] (H-H[Aib]EGTFTSDWSVLLEGAALQRFIQWLV-NH2) | 0.85 | 260000 |  |  |  | 0.0794 | 468 | 31.6 |  |  |  |
| CC[C@H](C)[C@H](NC(=O)[C@H](Cc1ccccc1)NC(=O)[C@H](CCCNC(=N)N)NC(=O)[C@H](CCC(N)=O)NC(=O)[C@H](CC(C)C)NC(=O)[C@H](C)NC(=O)[C@H](C)NC(=O)CNC(=O)[C@H](CCC(=O)O)NC(=O)[C@H](CC(C)C)NC(=O)[C@H](CC(C)C)NC(=O)[C@H](CCCNC(=N)N)NC(=O)[C@H](CO)NC(=O)C(C)(C)NC(=O)[C@H](CC(=O)O)NC(=O)[C@H](CO)NC(=O)[C@@H](NC(=O)[C@H](Cc1ccccc1)NC(=O)[C@@H](NC(=O)CNC(=O)[C@H](CCC(=O)O)NC(=O)C(C)(C)NC(=O)[C@@H](N)Cc1c[nH]cn1)[C@@H](C)O)[C@@H](C)O)C(=O)N[C@@H](CCC(N)=O)C(=O)N[C@@H](Cc1c[nH]c2ccccc12)C(=O)N[C@@H](CC(C)C)C(=O)N[C@H](C(N)=O)C(C)C [compound 104] (H-H[Aib]EGTFTSD[Aib]SRLLEGAALQRFIQWLV-NH2) | 0.12 | 1348 |  |  |  |  |  |  | 0.126 | 2902 | 316 |
| CC(C)C[C@H](NC(=O)[C@H](Cc1ccccc1)NC(=O)[C@H](CCCNC(=N)N)NC(=O)[C@H](CCC(N)=O)NC(=O)C(C)(C)NC(=O)[C@H](C)NC(=O)[C@H](C)NC(=O)[C@H](Cc1ccccc1)NC(=O)[C@H](CCC(=O)O)NC(=O)[C@H](CCCCNC(=O)COCCOCCNC(=O)COCCOCCNC(=O)CC[C@H](NC(=O)CCCCCCCCCCCCCCCCCCC(=O)O)C(=O)O)NC(=O)[C@H](CC(C)C)NC(=O)[C@H](CCCNC(=N)N)NC(=O)[C@H](CO)NC(=O)[C@@H](NC(=O)[C@H](CC(=O)O)NC(=O)[C@H](CO)NC(=O)[C@@H](NC(=O)[C@H](Cc1ccccc1)NC(=O)[C@@H](NC(=O)CNC(=O)[C@H](CCC(=O)O)NC(=O)C(C)(C)NC(=O)[C@@H](N)Cc1c[nH]cn1)[C@@H](C)O)[C@@H](C)O)C(C)C)C(=O)N[C@@H](CCC(=O)O)C(=O)N[C@@H](Cc1c[nH]cn1)C(=O)N[C@@H](CC(C)C)C(=O)N[C@H](C(N)=O)C(C)C [compound 68] (H-H[Aib]EGTFTSDVSRLK([AEEA-AEEA-γGlu-C20 diacid])EFAA[Aib]QRFLEHLV-NH2) | 0.08 | 13444 | 11839 | 0.1 | 1260 |  |  |  |  |  |  |
| CC(C)C[C@H](NC(=O)[C@H](Cc1ccccc1)NC(=O)[C@H](CCCNC(=N)N)NC(=O)[C@H](CCC(N)=O)NC(=O)[C@H](CO)NC(=O)[C@H](C)NC(=O)[C@H](C)NC(=O)[C@H](Cc1ccccc1)NC(=O)[C@H](CCC(=O)O)NC(=O)[C@H](CCCCNC(=O)COCCOCCNC(=O)COCCOCCNC(=O)CC[C@H](NC(=O)CCCCCCCCCCCCCCCCCCC(=O)O)C(=O)O)NC(=O)[C@H](CC(C)C)NC(=O)[C@H](Cc1ccccc1)NC(=O)[C@H](CO)NC(=O)[C@@H](NC(=O)[C@H](CC(=O)O)NC(=O)[C@H](CO)NC(=O)[C@@H](NC(=O)[C@H](Cc1ccccc1)NC(=O)[C@@H](NC(=O)CNC(=O)[C@H](CCC(=O)O)NC(=O)C(C)(C)NC(=O)[C@@H](N)Cc1c[nH]cn1)[C@@H](C)O)[C@@H](C)O)C(C)C)C(=O)N[C@@H](CCC(=O)O)C(=O)N[C@@H](Cc1c[nH]cn1)C(=O)N[C@@H](CC(C)C)C(=O)N[C@H](C(N)=O)C(C)C [compound 91] (H-H[Aib]EGTFTSDVSFLK([AEEA-AEEA-γGlu-C20 diacid])EFAASQRFLEHLV-NH2) | 0.42 | 260000 |  |  |  |  |  |  | 0.316 | 101438 | 31600 |
| CC(C)C[C@H](NC(=O)[C@H](Cc1ccccc1)NC(=O)[C@H](CCCNC(=N)N)NC(=O)[C@H](CCC(N)=O)NC(=O)[C@H](CO)NC(=O)[C@H](C)NC(=O)[C@H](C)NC(=O)[C@H](CCC(=O)O)NC(=O)[C@H](CCC(=O)O)NC(=O)[C@H](CCCCNC(=O)COCCOCCNC(=O)COCCOCCNC(=O)CC[C@H](NC(=O)CCCCCCCCCCCCCCCCCCC(=O)O)C(=O)O)NC(=O)[C@H](CC(C)C)NC(=O)[C@H](CCC(=O)O)NC(=O)[C@H](CO)NC(=O)[C@@H](NC(=O)[C@H](CC(=O)O)NC(=O)[C@H](CO)NC(=O)[C@@H](NC(=O)[C@H](Cc1ccccc1)NC(=O)[C@@H](NC(=O)CNC(=O)[C@H](CCC(=O)O)NC(=O)C(C)(C)NC(=O)[C@@H](N)Cc1c[nH]cn1)[C@@H](C)O)[C@@H](C)O)C(C)C)C(=O)N[C@@H](CCC(=O)O)C(=O)N[C@@H](Cc1c[nH]cn1)C(=O)N[C@@H](CC(C)C)C(=O)N[C@H](C(N)=O)C(C)C [compound 87] (H-H[Aib]EGTFTSDVSELK([AEEA-AEEA-γGlu-C20 diacid])EEAASQRFLEHLV-NH2) | 0.08 | 7811 |  |  |  |  |  |  | 0.0398 | 39811 | 1580 |
| CC(C)C[C@H](NC(=O)[C@H](Cc1ccccc1)NC(=O)[C@H](CCCNC(=N)N)NC(=O)[C@H](CCC(N)=O)NC(=O)C(C)(C)NC(=O)[C@H](C)NC(=O)[C@H](C)NC(=O)C(C)(C)NC(=O)[C@H](CCC(=O)O)NC(=O)[C@H](CCCCNC(=O)COCCOCCNC(=O)COCCOCCNC(=O)CC[C@H](NC(=O)CCCCCCCCCCCCCCCCCCC(=O)O)C(=O)O)NC(=O)[C@H](CC(C)C)NC(=O)[C@H](CCCNC(=N)N)NC(=O)[C@H](CO)NC(=O)[C@@H](NC(=O)[C@H](CC(=O)O)NC(=O)[C@H](CO)NC(=O)[C@@H](NC(=O)[C@H](Cc1ccccc1)NC(=O)[C@@H](NC(=O)CNC(=O)[C@H](CCC(=O)O)NC(=O)C(C)(C)NC(=O)[C@@H](N)Cc1c[nH]cn1)[C@@H](C)O)[C@@H](C)O)C(C)C)C(=O)N[C@@H](CCC(=O)O)C(=O)N[C@@H](Cc1c[nH]cn1)C(=O)N[C@@H](CC(C)C)C(=O)N[C@H](C(N)=O)C(C)C [compound 64] (H-H[Aib]EGTFTSDVSRLK([AEEA-AEEA-γGlu-C20 diacid])E[Aib]AA[Aib]QRFLEHLV-NH2) | 0.09 | 14614 | 4808 | 0.0631 | 316 |  |  |  |  |  |  |
